Measurements published in ChEMBL document CHEMBL1649389, “Microwave supported synthesis of some novel 1,3-diarylpyrazino[1,2-a]benzimidazole derivatives and investigation of their anticancer activities” (2011).

Columns and labels:
Type in all cases: functional
[1] = Cytotoxicity against human breast cancer cells assessed as cell growth after 48 hrs by SRB assay; conditions: Cancer cell lines
[2] = Cytotoxicity against human colon cancer cells assessed as cell growth after 48 hrs by SRB assay; conditions: Cancer cell lines
[3] = Cytotoxicity against human leukemia cells assessed as cell growth after 48 hrs by SRB assay
NSCLC = experiment: Cytotoxicity against human NSCLC cells assessed as cell growth after 48 hrs by SRB assay
[4] = Cytotoxicity against human renal cancer cells assessed as cell growth after 48 hrs by SRB assay; conditions: Cancer cell lines
[5] = Cytotoxicity against human prostate cancer cells assessed as cell growth after 48 hrs by SRB assay; conditions: Cancer cell lines
[6] = Cytotoxicity against human melanoma cells assessed as cell growth after 48 hrs by SRB assay
[7] = Cytotoxicity against human CNSC cells assessed as cell growth after 48 hrs by SRB assay
[8] = Cytotoxicity against human ovarian cancer cells assessed as cell growth after 48 hrs by SRB assay; conditions: Cancer cell lines

Row | Compound | GI50 [1] [µM] | GI50 [2] [µM] | GI50 [3] [µM] | GI50 (NSCLC) [µM] | GI50 [4] [µM] | GI50 [5] [µM] | GI50 [6] [µM] | GI50 [7] [µM] | GI50 [8] [µM]
1 | COc1ccc(C(=O)Cn2c(C(=O)c3ccc(OC)cc3)nc3ccccc32)cc1 | 2.4 | 1.26 | 0.741 | 15.1 | 3.89 | 2.95 | 3.24 | 3.31 | 3.02
2 | O=C(Cn1c(C(=O)c2ccccc2)nc2ccccc21)c1ccccc1 | 9.33 | 63.1 | 52.5 | 69.2 | 87.1 | 72.4 | 100 | 83.2 | 100
3 | COc1ccc(C(=O)Cn2c(C(=O)c3ccccc3)nc3ccccc32)cc1 | 2.24 | 1.51 | 0.724 | 9.33 | 3.24 | 3.24 | 2.95 | 3.98 | 3.63
4 | O=C(Cn1c(C(=O)c2ccccc2)nc2ccccc21)c1ccc(F)cc1 | 3.98 | 3.55 | 1.41 | 18.6 | 2.75 | 13.5 | 4.57 | 8.51 | 10.7
5 | COc1ccc(C(=O)c2nc3ccccc3n2CC(=O)c2ccc(Cl)cc2)cc1 | 3.47 | 2.51 | 0.724 | 14.5 | 3.72 | 3.02 | 2.45 | 3.39 | 5.25
6 | COc1ccc(C(=O)Cn2c(C(=O)c3ccc(Cl)cc3)nc3ccccc32)cc1 | 6.17 | 5.01 | 2.57 | 18.6 | 14.1 | 24 | 9.55 | 16.6 | 17.8
7 | N[C@@H](Cc1ccc(N(CCCl)CCCl)cc1)C(=O)O | 16.2 | 7.76 | 3.31 | 6.76 | 10.2 | 32.4 | 8.32 | 7.59 | 6.61
